Results reported in ChEMBL document CHEMBL1201862, “PubChem BioAssay data set” (2004).
Calls of active or inactive are those of the source.

How the values were obtained:
Protein skinhead-1 = molecular target: T1, Protein skinhead-1 (Caenorhabditis elegans, UniProt P34707); type: functional
T1 sequence (P34707 whole entry): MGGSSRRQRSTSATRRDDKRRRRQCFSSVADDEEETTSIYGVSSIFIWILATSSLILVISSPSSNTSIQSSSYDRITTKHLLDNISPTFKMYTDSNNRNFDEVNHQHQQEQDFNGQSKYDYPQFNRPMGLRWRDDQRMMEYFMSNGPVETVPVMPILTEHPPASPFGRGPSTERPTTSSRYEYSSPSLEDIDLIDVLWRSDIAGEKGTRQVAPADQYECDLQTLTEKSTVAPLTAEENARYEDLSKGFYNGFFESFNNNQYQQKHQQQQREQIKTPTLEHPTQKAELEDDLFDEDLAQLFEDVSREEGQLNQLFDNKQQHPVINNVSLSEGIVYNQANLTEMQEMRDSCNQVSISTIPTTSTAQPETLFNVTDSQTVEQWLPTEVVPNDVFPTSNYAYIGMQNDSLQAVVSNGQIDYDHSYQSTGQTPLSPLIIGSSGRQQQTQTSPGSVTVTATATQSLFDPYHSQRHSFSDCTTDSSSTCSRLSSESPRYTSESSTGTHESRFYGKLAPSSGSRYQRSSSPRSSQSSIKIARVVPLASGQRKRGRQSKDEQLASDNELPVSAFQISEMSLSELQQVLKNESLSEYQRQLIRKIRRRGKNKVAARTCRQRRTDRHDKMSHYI

[1] = molecular target: T2, Polyadenylate-binding protein 1 (Homo sapiens, UniProt P11940); assay: MLLE binding blockers, Cy5 peptide tracer – biochemical, fluorescence polarization, Cy5-PAM2 peptide, secondary, miRNA deadenylation inhibitor project, dose response (AID 602260); type: functional; conditions: read-out: IC50_Mean
T2 sequence (P11940 whole entry, the tested form may be a part): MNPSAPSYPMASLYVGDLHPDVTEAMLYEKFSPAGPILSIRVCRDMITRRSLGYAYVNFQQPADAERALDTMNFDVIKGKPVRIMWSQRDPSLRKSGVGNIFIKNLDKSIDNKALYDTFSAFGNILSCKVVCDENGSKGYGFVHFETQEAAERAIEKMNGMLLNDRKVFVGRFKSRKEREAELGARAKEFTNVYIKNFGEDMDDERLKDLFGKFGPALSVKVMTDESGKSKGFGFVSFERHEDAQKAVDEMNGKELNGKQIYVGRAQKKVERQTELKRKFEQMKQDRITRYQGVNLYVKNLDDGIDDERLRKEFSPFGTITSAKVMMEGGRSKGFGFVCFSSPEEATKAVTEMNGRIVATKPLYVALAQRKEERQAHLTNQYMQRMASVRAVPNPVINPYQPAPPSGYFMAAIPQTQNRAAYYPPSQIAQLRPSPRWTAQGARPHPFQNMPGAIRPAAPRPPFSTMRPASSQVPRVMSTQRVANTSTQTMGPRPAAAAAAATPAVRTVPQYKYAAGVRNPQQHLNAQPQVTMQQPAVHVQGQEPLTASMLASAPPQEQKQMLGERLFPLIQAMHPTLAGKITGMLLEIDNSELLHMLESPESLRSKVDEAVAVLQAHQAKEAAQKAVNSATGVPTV

[2] = molecular target: T2, Polyadenylate-binding protein 1; assay: MLLE domain peptide-binding blockers, IC50 – biochemical, fluorescence polarization, FITC-PAM2 peptide, dose response (AID 602259); type: functional; conditions: read-out: IC50_Mean
Cytochrome P450 2D6 = Cytochrome P450 2D6 (Homo sapiens, UniProt P10635);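 also: CYP2D6 member of a cytochrome P450 panel assay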
Sequence of Cytochrome P450 2D6 (P10635 whole entry): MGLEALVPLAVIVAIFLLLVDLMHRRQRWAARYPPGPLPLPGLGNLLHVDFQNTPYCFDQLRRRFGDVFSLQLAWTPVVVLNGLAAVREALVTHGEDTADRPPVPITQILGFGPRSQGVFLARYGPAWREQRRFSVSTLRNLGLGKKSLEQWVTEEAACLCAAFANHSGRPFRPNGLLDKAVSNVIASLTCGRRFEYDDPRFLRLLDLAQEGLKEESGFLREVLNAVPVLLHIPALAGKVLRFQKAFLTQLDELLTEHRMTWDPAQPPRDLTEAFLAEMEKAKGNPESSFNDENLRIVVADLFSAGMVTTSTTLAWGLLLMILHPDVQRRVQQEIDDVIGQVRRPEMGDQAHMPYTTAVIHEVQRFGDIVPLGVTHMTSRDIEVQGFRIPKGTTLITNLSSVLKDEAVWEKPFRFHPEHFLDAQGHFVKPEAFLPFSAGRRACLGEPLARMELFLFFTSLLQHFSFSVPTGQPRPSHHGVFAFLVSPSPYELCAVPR

[3] = viability of PTEN-deleted HCT116 cells – cell-based, HCT116 PTEN knockout, dose response (AID 1047); type: functional;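 also: HCT116 colon tumor cells with PTEN knocked out; cells exposed to compound for 60 hours before readout; potency for loss of cell viability measured by luminescence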
[4] = viability of HCT116 lacking mutant beta-catenin – cell-based, human colon tumor, dose response (AID 1045); type: functional;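 also: HCT116 colon tumor cells with beta catenin knocked out; cells exposed to compound for 60 hours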
Cytochrome P450 2C9 [5] = molecular target: T3, Cytochrome P450 2C9 (Homo sapiens, UniProt P11712)
T3 sequence (P11712 whole entry): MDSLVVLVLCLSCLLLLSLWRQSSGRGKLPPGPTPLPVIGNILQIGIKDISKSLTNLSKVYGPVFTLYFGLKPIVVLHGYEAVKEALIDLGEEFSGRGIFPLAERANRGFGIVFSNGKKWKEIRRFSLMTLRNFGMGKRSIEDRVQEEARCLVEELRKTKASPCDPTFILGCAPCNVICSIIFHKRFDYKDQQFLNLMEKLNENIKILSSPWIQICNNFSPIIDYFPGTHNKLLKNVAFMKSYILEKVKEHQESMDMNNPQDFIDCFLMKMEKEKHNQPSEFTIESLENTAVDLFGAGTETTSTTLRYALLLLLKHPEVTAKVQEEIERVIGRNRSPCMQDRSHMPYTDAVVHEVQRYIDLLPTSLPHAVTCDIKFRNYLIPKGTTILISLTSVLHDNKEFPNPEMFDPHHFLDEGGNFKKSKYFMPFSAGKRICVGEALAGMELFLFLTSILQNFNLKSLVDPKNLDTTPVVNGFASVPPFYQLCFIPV

[6] = Luminescence Cell-Based Dose Confirmation HTS to Identify Activators of 5'UTR Stem-Loop Driven Alpha-Synuclein mRNA Translation in H4 Neuroglioblastoma Cells. [Related pubchem assays: 1829 (Project Summary), 1814 (Primary HTS)]; type: functional
[7] = Luminescence Cell-Based Dose Response HTS to Identify Activators of Luciferase Translation or Activity in H4 […] Cells. [Related pubchem assays: 1829 (Project Summary), 1814 (Primary HTS)]; type: functional
H4 = assay: Luminescence Cell-Based Dose Response HTS to Identify Activators of 5'UTR Stem-Loop Driven Prion Protein mRNA Translation in H4 Neuroglioblastoma Cells. [Related pubchem assays: 1829 (Project Summary), 1814 (Primary HTS)]; type: functional; conditions: Homo sapiens
Protein RecA = molecular target: T4, Protein RecA (Mycobacterium tuberculosis, UniProt P9WHJ3); assay: Fluorescence Cell-Free Homogeneous Dose Retest to Identify Inhibitors of RecA-Intein Splicing Activity. [Related pubchem assays (depositor defined):AID2097, AID2223, AID489010, AID492950]; type: functional
T4 sequence (P9WHJ3 whole entry): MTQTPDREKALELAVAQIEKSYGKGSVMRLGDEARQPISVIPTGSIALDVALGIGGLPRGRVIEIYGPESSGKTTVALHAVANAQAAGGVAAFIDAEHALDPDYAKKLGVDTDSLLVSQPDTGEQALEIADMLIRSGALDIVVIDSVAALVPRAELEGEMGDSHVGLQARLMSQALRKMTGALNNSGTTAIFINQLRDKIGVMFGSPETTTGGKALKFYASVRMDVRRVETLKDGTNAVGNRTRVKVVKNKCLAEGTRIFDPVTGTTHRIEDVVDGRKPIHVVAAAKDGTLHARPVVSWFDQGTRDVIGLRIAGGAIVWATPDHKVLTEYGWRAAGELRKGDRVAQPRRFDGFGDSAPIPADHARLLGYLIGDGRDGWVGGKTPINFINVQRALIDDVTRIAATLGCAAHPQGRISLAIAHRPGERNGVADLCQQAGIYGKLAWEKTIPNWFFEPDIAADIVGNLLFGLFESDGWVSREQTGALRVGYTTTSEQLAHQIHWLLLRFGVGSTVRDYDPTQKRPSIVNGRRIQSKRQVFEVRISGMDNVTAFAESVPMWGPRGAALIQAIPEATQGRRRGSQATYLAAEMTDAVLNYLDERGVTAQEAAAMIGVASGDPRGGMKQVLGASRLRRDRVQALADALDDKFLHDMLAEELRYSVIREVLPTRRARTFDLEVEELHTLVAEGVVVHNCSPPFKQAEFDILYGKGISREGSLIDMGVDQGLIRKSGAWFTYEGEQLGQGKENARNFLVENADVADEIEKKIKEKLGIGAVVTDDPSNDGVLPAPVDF

[8] = system: Streptococcus sp. 'group A'; assay: Streptococcus pyogenes SK(-)GAS viability under kanamycin – luminescence, BacTiterGlo, confirmation, counter-screen for streptokinase expression inhibitor project, dose response (AID 1900); type: functional, organism-based
Streptococcus = assay: GAS UMAA2166 growth inhibition – luminescence, BacTiterGlo, counter-screen for streptokinase expression inhibitor project, dose response (AID 1915); type: functional, organism-based;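 also: potency for reduction of bacterial viability or growth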
Cytochrome P450 2C19 = Cytochrome P450 2C19 (Homo sapiens, UniProt P33261); assay: Cytochrome panel assay with activity outcomes. Panel member name: p450-cyp2c19 Compounds with AC50 equal or less than 10 uM are considered active; type: functional; conditions: read-out: AC50
Sequence of Cytochrome P450 2C19 (P33261 whole entry): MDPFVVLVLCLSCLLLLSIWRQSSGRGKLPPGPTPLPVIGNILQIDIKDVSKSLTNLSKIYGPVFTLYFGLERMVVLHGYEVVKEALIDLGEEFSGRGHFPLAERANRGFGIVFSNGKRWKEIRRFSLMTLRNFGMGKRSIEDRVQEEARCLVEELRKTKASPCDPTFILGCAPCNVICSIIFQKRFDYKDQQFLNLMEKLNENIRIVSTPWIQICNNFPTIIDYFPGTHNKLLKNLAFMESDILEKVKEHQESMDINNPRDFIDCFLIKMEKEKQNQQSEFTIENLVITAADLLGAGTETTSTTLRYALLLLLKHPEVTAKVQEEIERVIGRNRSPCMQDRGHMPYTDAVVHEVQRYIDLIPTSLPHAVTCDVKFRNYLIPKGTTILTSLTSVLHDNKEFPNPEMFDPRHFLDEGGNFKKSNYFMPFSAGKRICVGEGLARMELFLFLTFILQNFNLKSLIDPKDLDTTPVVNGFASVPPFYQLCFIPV

Cytochrome P450 1A2 = molecular target: T5, Cytochrome P450 1A2 (Homo sapiens, UniProt P05177);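 also: PubChem cytochrome P450 panel assay, CYP1A2 panel member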
T5 sequence (P05177 whole entry): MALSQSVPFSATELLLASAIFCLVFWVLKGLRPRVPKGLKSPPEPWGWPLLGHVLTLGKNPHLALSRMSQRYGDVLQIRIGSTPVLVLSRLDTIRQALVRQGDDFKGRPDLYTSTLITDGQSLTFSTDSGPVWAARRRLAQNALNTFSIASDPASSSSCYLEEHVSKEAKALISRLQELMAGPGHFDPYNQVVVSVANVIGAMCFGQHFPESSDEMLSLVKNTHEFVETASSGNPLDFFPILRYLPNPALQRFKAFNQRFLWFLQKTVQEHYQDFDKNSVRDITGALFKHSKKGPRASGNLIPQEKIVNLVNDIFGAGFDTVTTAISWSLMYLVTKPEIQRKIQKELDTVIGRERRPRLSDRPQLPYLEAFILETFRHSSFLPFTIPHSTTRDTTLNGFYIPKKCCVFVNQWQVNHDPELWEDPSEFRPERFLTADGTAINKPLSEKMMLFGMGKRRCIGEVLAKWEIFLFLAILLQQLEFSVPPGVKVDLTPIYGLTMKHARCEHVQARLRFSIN

Cytochrome P450 2C9 [9] = molecular target: T3, Cytochrome P450 2C9; remark: listed apart in the source
[10] = molecular target: T6, Corticotropin-releasing factor receptor 2/Corticotropin-releasing factor-binding protein (Homo sapiens, UniProt P24387+Q13324); assay: Dose Response confirmation of uHTS hits for small molecule antagonists of the CRF-binding protein and CRF-R2 receptor complex.; type: functional; conditions: read-out: IC50_Mean
T6 sequence (Q13324 whole entry): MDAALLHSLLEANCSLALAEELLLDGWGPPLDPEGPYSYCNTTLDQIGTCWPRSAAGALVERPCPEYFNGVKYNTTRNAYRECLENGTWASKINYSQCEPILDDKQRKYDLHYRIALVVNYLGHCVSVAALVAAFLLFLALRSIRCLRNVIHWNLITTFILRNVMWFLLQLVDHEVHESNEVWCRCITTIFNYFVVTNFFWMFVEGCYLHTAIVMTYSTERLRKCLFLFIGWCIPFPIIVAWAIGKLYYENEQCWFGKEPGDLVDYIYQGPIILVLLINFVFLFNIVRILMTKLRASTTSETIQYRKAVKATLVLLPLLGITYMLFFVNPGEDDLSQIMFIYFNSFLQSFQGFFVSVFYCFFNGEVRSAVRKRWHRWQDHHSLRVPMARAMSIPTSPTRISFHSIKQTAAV
T6 sequence (P24387 whole entry): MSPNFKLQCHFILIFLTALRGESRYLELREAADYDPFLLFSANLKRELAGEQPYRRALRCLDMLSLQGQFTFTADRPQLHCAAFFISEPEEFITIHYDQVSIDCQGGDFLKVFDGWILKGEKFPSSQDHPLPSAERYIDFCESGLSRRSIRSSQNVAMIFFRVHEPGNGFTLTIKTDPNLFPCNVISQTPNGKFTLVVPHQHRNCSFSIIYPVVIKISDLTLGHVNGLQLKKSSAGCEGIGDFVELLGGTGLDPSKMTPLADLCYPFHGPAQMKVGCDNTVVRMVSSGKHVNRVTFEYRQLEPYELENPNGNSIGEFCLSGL

[11] = molecular target: T6, Corticotropin-releasing factor receptor 2/Corticotropin-releasing factor-binding protein; assay: activators of CRF receptor 2 with binding protein – uHTS hits, confirmation (AID 602473); type: functional; conditions: read-out: EC50_Mean

CS(=O)(=O)N1N=C(c2cccs2)CC1c1ccccc1O (stereo not given)
IC50 (Protein skinhead-1): > 100 µM (inactive)

CCNC(=O)c1sc(=S)n(-c2ccc(C)cc2)c1N
IC50 [1]: > 66 µM (inactive) | IC50 [2]: > 66 µM (inactive)

C[N+](C)(C)C1=NNC2=Nc3ccccc3SC2=C1
AC50 (Cytochrome P450 2D6): 3.98 µM (inconclusive)

O=C(c1ccc([N+](=O)[O-])cc1)[C@@H](Br)[C@@H](Br)c1ccnc2ccccc12
AC50 (Cytochrome P450 2D6): 3.98 µM (inconclusive)

CCOC(=O)/C(=C/c1ccc(N2CCC(c3ccccc3)=N2)cc1)C(C)=O
EC50 [3]: 0.014 µM (active) | EC50 [4]: 26.7 µM (active)

C#CCNC(=O)C1=C[C@@H](c2cn(C(C)=O)c3ccccc23)C[C@@H](OCCCCO)O1
IC50 (Protein skinhead-1): > 100 µM (inactive)

C=CCNc1nc(-c2ccc([N+](=O)[O-])cc2)cs1
IC50 (Protein skinhead-1): 23.7 µM (active)

O=c1c(-c2cccs2)nc2cncnc2n1Cc1ccc(F)cc1
AC50 (Cytochrome P450 2D6): 0.631 µM (inconclusive) | AC50 (Cytochrome P450 2C9 [5]): 1 µM (inconclusive)

CCCCN1C(=O)C(O)(CC(=O)c2ccco2)c2cc(Br)ccc21 (stereo not given)
EC50 [3]: 7.11 µM (active) | EC50 [4]: 5.01 µM (active)

COCCNc1ncnc2ccc(-c3ccccc3OC)cc12
AC50 (Cytochrome P450 2D6): 39.8 µM (inconclusive)

O=C(Nc1ccc2oc(-c3cccnc3)nc2c1)c1ccc(Br)o1
IC50 (Protein skinhead-1): > 100 µM (inactive)

O=C(c1ccc(S(=O)(=O)NCc2ccco2)cc1)N1CCN(c2ccc(F)cc2)CC1
IC50 (Protein skinhead-1): > 100 µM (inactive)

COC(=O)[C@@]1(Cc2ccc(F)cc2)[C@H]2c3cc(C(=O)N(C)C)n(Cc4ccc(C)c(F)c4F)c3C[C@H]2CN1C(=O)c1ccccc1
AC50 (Cytochrome P450 2D6): 20 µM (inconclusive)

CCOC(=O)c1cc2cc3ccccc3cc2[nH]1
EC50 [6]: 0.164 µM (active) | EC50 [7]: 0.191 µM (active) | EC50 (H4): > 120 µM (not active) | EC50 (Protein RecA): > 380 µM (inactive) | IC50 (Protein skinhead-1): > 100 µM (inactive)

O=C(Cn1cc(C(=O)c2ccco2)c2ccccc21)NCc1ccco1
AC50 (Cytochrome P450 2D6): 22.4 µM (inconclusive)

COc1ccc(Cl)cc1NC(=O)CN(C(=O)c1ccco1)C1CCCCC1
IC50 [1]: > 66 µM (inactive) | IC50 [2]: > 66 µM (inactive)

CCOc1ccc2c(c1)n([O-])c1c([n+]2=O)CCCC1
IC50 [1]: > 66 µM (inactive) | IC50 [2]: > 66 µM (inactive)

CC1=NN(c2ccccc2)C(=O)/C1=C\C=C1\N(C)c2ccccc2C1(C)C
IC50 (Protein skinhead-1): 42.5 µM (active)

COc1cc2cc(/C=C/C(=O)c3ccco3)c(Cl)nc2cc1OC
EC50 [3]: 11.6 µM (active) | EC50 [4]: 10.1 µM (active)

CCOC(=O)CSC1=C(C#N)C(c2sccc2C)C(C(C)=O)=C(C)N1 (stereo not given)
AC50 (Cytochrome P450 2D6): 35.5 µM (inconclusive)

COc1ccc(S(=O)(=O)Nc2ccc(S(=O)(=O)Nc3ccc(F)cc3)cc2)cc1C
IC50 (Protein skinhead-1): > 100 µM (inactive)

Cc1ccc(CNC(=O)CSc2nccn(-c3ccc(C)c(F)c3)c2=O)cc1
IC50 [1]: > 66 µM (inactive) | IC50 [2]: > 66 µM (inactive)

O=C(N/N=C/c1c[nH]c2ccccc12)c1cc(-c2ccc(-c3ccccc3)cc2)[nH]n1
EC50 [6]: 0.219 µM (active) | EC50 [7]: 0.166 µM (active) | EC50 [8]: 3.46 µM (active) | EC50 (H4): > 120 µM (not active) | EC50 [3]: 5.81 µM (active) | EC50 [4]: 8.8 µM (active) | EC50 (Streptococcus): 1.56 µM (active) | AC50 (Cytochrome P450 2C19): 6.31 µM (inconclusive) | AC50 (Cytochrome P450 1A2): 3.16 µM (inconclusive) | AC50 (Cytochrome P450 2C9 [9]): inconclusive

Cn1nnc(NC(=S)NC(=O)c2ccc3ccccc3c2)n1
IC50 [1]: > 66 µM (inactive) | IC50 [2]: > 66 µM (inactive)

COc1cccc(/C=N/NC(=O)CNC(=O)C2COc3ccccc3O2)c1O (stereo not given)
EC50 [3]: 13.1 µM (active) | EC50 [4]: 10.9 µM (active)

CC(=O)O[C@H]1[C@@H](O)[C@H](O)[C@H](Oc2c(O)c(C)c3c4c2[C@@H](C)CC[C@@H]4[C@@H](C)C[C@@H]3C=C(C)C)O[C@H]1C
IC50 (Protein skinhead-1): > 100 µM (inactive)

CCOC(=O)/C=c1\s/c(=C\c2ccc(C(F)(F)F)cc2)c(=O)n1CC(=O)NCc1ccco1
EC50 [3]: 35.9 µM (active) | EC50 [4]: 45.9 µM (active)

O=c1cc(-c2ccc(F)cc2)oc2ccccc12
IC50 [10]: > 47.1 µM (inactive) | EC50 [11]: > 53 µM (inactive) | IC50 (Protein skinhead-1): 16.2 µM (active)

COc1cc2c(cc1OC)-c1cc3ccc(OC)c(OC)c3c[n+]1CC2 [PALMITINE]
AC50 (Cytochrome P450 2D6): 12.6 µM (inconclusive)
